According to patent US7314861B2, “Melanin-concentrating hormone analogs” (priority 2001, dated 2008):
Where a SMILES comes first, the peptide text is derived from it. Bridges are numbered along the chain shown (N, C = ends).

Assays:
[1] = molecular target: T1, human MCH-1R (Homo sapiens, UniProt Q99705); assay: Radiolabeled MCH-R binding assay (SPA based), MCH-1R
Method: (§1) Cell membranes were prepared on ice. Each T-75 flask was rinsed twice with 10 ml of Enzyme-free Cell Dissociation Buffer (Specialty Media, Lavallette, N.J.), and the cell monolayer was detached in an additional 10 ml of Enzyme-free Cell Dissociation Buffer by incubation at room temperature for 10 minutes. Dissociated cells were centrifuged (500×g for 10 minutes at 4° C.), resuspended in 5 ml homogenization buffer (10 mM Tris-HCl, pH 7.4, 0.01 mM Pefabloc, 10 μM phosphoramidon, 40 μg/ml bacitracin) and then homogenized using a glass homogenizer (10-15 strokes). The homogenate was centrifuged for 10 minutes (1,000×g at 4° C.). The resulting supernatant was then centrifuged at 38,700×g for 15 minutes at 4° C. Pelleted membranes were resuspended (passed through 25 gauge needle 5 times), snap-frozen on liquid nitrogen, and stored at −80° C. until use.
(§2) For the SPA-based assay, WGA-PVT beads (NEN Life Sciences Products) were resuspended in Dulbecco's PBS with calcium and magnesium (500 mg beads in 4 ml PBS). […] The suspension was mixed gently for 20 minutes, 12.3 ml of assay buffer and protease inhibitors were added (final concentration given): 2 μg/ml leupeptin, 10 μM phosphoramidon, 40 μg/ml bacitracin, 5 μg/ml aprotinin, 0.1 mM Pefabloc.
(§3) Coated beads were kept on ice until use. […] Binding reactions were allowed to proceed at room temperature for 3 hours. Quantitation was performed by scintillation counting (TopCount device).

[2] = molecular target: human MCH-R2 (Homo sapiens, UniProt Q969V1); assay: Aequorin bioluminescence functional assay, MCH-2R; settings: for MCH-2R Activation %: % Activation at 10 μM; for MCH-2R Activation % / EC50: aequorin functional assay; for EC50: MCH-2R EC50 (nM); for selective activity at MCH-2R over MCH-1R: greater binding and/or activation at MCH-2R than at MCH-1R
Method: (§4) The aequorin bioluminescence assay can be used to measure the activity of G protein-coupled receptors that couple through the Gα protein subunit family consisting of Gq and G11. Such coupling leads to phospholipase C activation, intracellular calcium mobilization and protein kinase C activation.
(§5) Following approximately 40 hours of expression the apo-aequorin in the cells was charged for 4 hours with coelenterazine (10 μM) under reducing conditions (300 μM reduced glutathione) in ECB buffer (140 mM NaCl, 20 mM KCl, 20 mM HEPES-NaOH [pH=7.4], 5 mM glucose, 1 mM MgCl2, 1 mM CaCl2, 0.1 mg/ml bovine serum albumin).
(§6) The cells were harvested, washed once in ECB medium and resuspended to 500,000 cells/ml. 100 μl of cell suspension (corresponding to 5×10^4 cells) was then injected into the test plate containing MCH or MCH analogs, and the integrated light emission was recorded over 30 seconds, in 0.5 second units. 20 μL of lysis buffer (0.1% final Triton X-100 concentration) was then injected and the integrated light emission recorded over 10 seconds, in 0.5 second units. The “fractional response” values for each well were calculated by taking the ratio of the integrated response to the initial challenge to the total integrated luminescence including the Triton X-100 lysis response.

[3] = molecular target: T1, human MCH-1R; assay: Aequorin bioluminescence functional assay, MCH-1R; settings: for MCH-1R Activation %: % Activation at 10 μM, aequorin functional assay
Method: as §4, §5, §6

[4] = molecular target: human MCH-2R (Homo sapiens, UniProt Q969V1); assay: Radiolabeled MCH-R binding assay (SPA based), MCH-2R; settings: MCH-2R IC50 (nM)
human MCH-2R, sequence (Q969V1 whole entry): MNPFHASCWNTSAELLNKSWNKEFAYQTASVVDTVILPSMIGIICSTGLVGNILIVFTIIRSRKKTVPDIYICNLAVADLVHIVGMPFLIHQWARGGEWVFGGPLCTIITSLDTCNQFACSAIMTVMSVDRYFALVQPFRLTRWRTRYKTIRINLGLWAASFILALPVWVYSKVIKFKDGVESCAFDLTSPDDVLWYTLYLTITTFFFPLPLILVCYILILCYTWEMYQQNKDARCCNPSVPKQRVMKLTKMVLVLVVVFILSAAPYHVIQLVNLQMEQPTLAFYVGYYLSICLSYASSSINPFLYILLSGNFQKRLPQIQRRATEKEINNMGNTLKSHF
Method: as §1, §2, §3

T1 sequence (Q99705 whole entry): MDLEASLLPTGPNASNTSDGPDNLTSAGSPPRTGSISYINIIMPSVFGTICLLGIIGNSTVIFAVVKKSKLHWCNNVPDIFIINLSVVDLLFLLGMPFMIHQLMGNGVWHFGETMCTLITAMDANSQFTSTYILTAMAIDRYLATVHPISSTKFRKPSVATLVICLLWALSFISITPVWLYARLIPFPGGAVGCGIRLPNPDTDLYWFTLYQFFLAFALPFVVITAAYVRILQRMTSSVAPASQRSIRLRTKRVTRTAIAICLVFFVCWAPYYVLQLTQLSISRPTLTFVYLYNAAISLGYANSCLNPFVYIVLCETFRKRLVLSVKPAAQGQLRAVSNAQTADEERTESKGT
human MCH-R2, sequence (Q969V1 whole entry): as the sequence (Q969V1 whole entry) above

Structure (SMILES)	IC50 [1]	MCH-2R Activation % ([2]; Table 3)	MCH-1R Activation % ([3]; Table 3)	IC50 ([4]; Table 3)	MCH-2R Activation % ([2]; Table 1)	selective activity at MCH-2R over MCH-1R [2]	further results
CSCC[C@@H]1NC(=O)[C@@H](NC(=O)[C@H](CCCNC(=N)N)NC(=O)[C@H](CC(C)C)NC(=O)[C@H](CCSC)NC(=O)[C@H](CC(=O)O)NC(=O)[C@H](Cc2ccccc2)NC(=O)[C@@H](N)CC(=O)O)CSSC[C@@H](C(=O)N[C@@H](Cc2c[nH]c3ccccc23)C(=O)N[C@@H](CCC(N)=O)C(=O)N[C@H](C(=O)O)C(C)C)NC(=O)[C@@H]2CCCN2C(=O)[C@H](CCCNC(=N)N)NC(=O)[C@H](Cc2ccc(O)cc2)NC(=O)[C@H](C)NC(=O)[C@H](CCCNC(=N)N)NC(=O)CNC(=O)[C@H](CC(C)C)NC1=O [compound 50] (H-DFDMLRCMLGRAYRPCWQV-OH; disulfide 7-16; N-terminus and C-terminus assumed)	0.9 nM	98%	95%	25 nM			
CSCC[C@H](NC(=O)[C@H](CC(=O)O)NC(=O)[C@H](Cc1ccccc1)NC(=O)[C@@H](N)CC(=O)O)C(=O)N[C@@H](C)C(=O)N[C@@H](CCCNC(=N)N)C(=O)N[C@H]1CSSC[C@@H](C(=O)N[C@@H](Cc2c[nH]c3ccccc23)C(=O)N[C@@H](CCC(N)=O)C(=O)N[C@H](C(=O)O)C(C)C)NC(=O)[C@@H]2CCCN2C(=O)[C@H](CCCNC(=N)N)NC(=O)[C@H](Cc2ccc(O)cc2)NC(=O)[C@H](C(C)C)NC(=O)[C@H](CCCNC(=N)N)NC(=O)CNC(=O)[C@H](CC(C)C)NC(=O)[C@H](CCSC)NC1=O [compound 45] (H-DFDMARCMLGRVYRPCWQV-OH; disulfide 7-16; N-terminus and C-terminus assumed)	0.3 nM	94%	96%	2 nM			
CSCC[C@@H]1NC(=O)[C@@H](NC(=O)[C@@H](N)CCCNC(=N)N)CSSC[C@@H](C(N)=O)NC(=O)[C@@H]2CCCN2C(=O)[C@H](CCCNC(=N)N)NC(=O)[C@H](Cc2ccc(O)cc2)NC(=O)[C@H](C(C)C)NC(=O)[C@H](CCCNC(=N)N)NC(=O)CNC(=O)[C@H](CC(C)C)NC1=O [compound 39]	0.13 nM						EC50 ([2]; Table 2): 11.6 nM; MCH-2R Activation % ([2]; Table 2): 109%; EC50 [3]: 14 nM; MCH-1R Activation % ([3]; Table 2): 106%; IC50 ([4]; Table 2): 11 nM
CSCC[C@@H]1NC(=O)[C@@H](NC(=O)[C@H](CCCNC(=N)N)NC(C)=O)CSSC[C@@H](C(N)=O)NC(=O)[C@@H]2CCCN2C(=O)[C@H](CCCNC(=N)N)NC(=O)[C@H](Cc2ccc(O)cc2)NC(=O)[C@H](C(C)C)NC(=O)[C@H](CCCNC(=N)N)NC(=O)[C@@H](CO)NC(=O)[C@H](CC(C)C)NC1=O [compound 19]	31 nM				113%	selectively active	MCH-1R Activation % ([3]; Table 1): 47%
CC(=O)N[C@@H](CCCNC(=N)N)C(=O)N[C@H]1CSSC[C@@H](C(N)=O)NC(=O)[C@@H]2CCCN2C(=O)[C@H](CCCNC(=N)N)NC(=O)[C@H](Cc2ccc(O)cc2)NC(=O)[C@H](C(C)C)NC(=O)[C@H](CCCNC(=N)N)NC(=O)CNC(=O)[C@H](CC(C)C)NC(=O)[C@H](C)NC1=O [compound 4] (Ac-RCALGRVYRPC-NH2; disulfide 2-11)	15 nM				104%	selectively active	EC50 ([2]; Table 1, 293-AEQ17 cells): 12 nM; MCH-1R Activation % ([3]; Table 1): 42%
CSCC[C@@H]1NC(=O)[C@@H](NC(=O)[C@H](CCCNC(=N)N)NC(=O)[C@H](CC(C)C)NC(=O)[C@H](C)NC(=O)[C@H](CC(=O)O)NC(=O)[C@H](Cc2ccccc2)NC(=O)[C@@H](N)CC(=O)O)CSSC[C@@H](C(=O)N[C@@H](Cc2c[nH]c3ccccc23)C(=O)N[C@@H](CCC(N)=O)C(=O)N[C@H](C(=O)O)C(C)C)NC(=O)[C@@H]2CCCN2C(=O)[C@H](CCCNC(=N)N)NC(=O)[C@H](Cc2ccc(O)cc2)NC(=O)[C@H](C(C)C)NC(=O)[C@H](CCCNC(=N)N)NC(=O)CNC(=O)[C@H](CC(C)C)NC1=O [compound 44] (H-DFDALRCMLGRVYRPCWQV-OH; disulfide 7-16; N-terminus and C-terminus assumed)	0.5 nM	100%	97%				
CSCC[C@@H]1NC(=O)[C@@H](NC(=O)[C@H](CCCNC(=N)N)NC(=O)[C@H](CC(C)C)NC(=O)[C@H](CCSC)NC(=O)[C@H](CC(=O)O)NC(=O)[C@H](Cc2ccccc2)NC(=O)[C@@H](N)CC(=O)O)CSSC[C@@H](C(=O)N[C@@H](Cc2c[nH]c3ccccc23)C(=O)N[C@@H](CCC(N)=O)C(=O)N[C@H](C(=O)O)C(C)C)NC(=O)[C@@H]2CCCN2C(=O)[C@H](CCCNC(=N)N)NC(=O)[C@H](Cc2ccc(O)cc2)NC(=O)[C@H](C(C)C)NC(=O)[C@H](CCCNC(=N)N)NC(=O)CNC(=O)[C@H](C)NC1=O [compound 48] (H-DFDMLRCMAGRVYRPCWQV-OH; disulfide 7-16; N-terminus and C-terminus assumed)	0.9 nM	92%	96%	9.5 nM			
CSCC[C@@H]1NC(=O)[C@@H](NC(=O)[C@H](CCCNC(=N)N)NC(=O)[C@H](CC(C)C)NC(=O)[C@H](CCSC)NC(=O)[C@H](CC(=O)O)NC(=O)[C@H](Cc2ccccc2)NC(=O)[C@@H](N)CC(=O)O)CSSC[C@@H](C(=O)N[C@@H](Cc2ccc(O)cc2)C(=O)N[C@@H](CCC(N)=O)C(=O)N[C@H](C(=O)O)C(C)C)NC(=O)[C@@H]2CCCN2C(=O)[C@H](CCCNC(=N)N)NC(=O)[C@H](Cc2ccccc2)NC(=O)[C@H](C(C)C)NC(=O)[C@H](CCCNC(=N)N)NC(=O)CNC(=O)[C@H](CC(C)C)NC1=O [compound 57] (H-DFDMLRCMLGRVFRPCYQV-OH; disulfide 7-16; N-terminus and C-terminus assumed)	0.6 nM	92%	97%				EC50 ([2]; Table 3): 1.5 nM
CSCC[C@@H]1NC(=O)[C@@H](NC(=O)[C@H](CCCNC(=N)N)NC(C)=O)CSSC[C@@H](C(N)=O)NC(=O)[C@@H]2CCCN2C(=O)[C@H](CCCNC(=N)N)NC(=O)[C@H](Cc2ccc(O)cc2)NC(=O)[C@H](C(C)C)NC(=O)[C@H](C)NC(=O)CNC(=O)[C@H](CC(C)C)NC1=O [compound 23] (Ac-RCMLGAVYRPC-NH2; disulfide 2-11)	> 1000 nM				36%	selectively active	EC50 ([2]; Table 1, 293-AEQ17 cells): > 1000 nM; EC50 [3]: > 10000 nM
